# Calls of active or inactive are those of the source. The rule behind the calls is not given here.
# Tests used:
# Candida albicans = assay: Antifungal activity against Candida albicans ATCC 10453 at 200 ug/disk by standard disk assay; assay type: functional, organism-based
# Bacillus subtilis = assay: Antibacterial activity against Bacillus subtilis ATCC 6051 at 100 ug/disk by standard disk assay; assay type: functional; conditions: read-out: IZ
# Ascobolus = assay: Antifungal activity against Ascobolus furfuraceus NRRL 6460 assessed as reduction in radical growth rate at 200 ug/disk by centerpoint inoculation disk assay; assay type: functional; parameters: scale not given: the % may be the effect or the level left
SMILES,Activity (Candida albicans),zone of inhibition at 100 µg/disc (Bacillus subtilis) [mm],Activity (Ascobolus) [%]
CC(CCOc1ccc(C(=O)O)cc1)C(=O)O (configuration not stated) [SPOROVEXIN A],inactive,9,90
O=C1C[C@@H](O)[C@]23Oc4ccc(O)c5c4[C@](Oc4cccc1c42)(O3)[C@@H]1O[C@@H]1[C@H]5O,inactive,,40
CC(C(=O)O)C(O)COc1ccc(C(=O)O)cc1 (configuration not stated),inactive,,
CC(CCOc1ccc(C(=O)NCCC(=O)O)cc1)C(=O)O (configuration not stated),inactive,,
